Test results: the supplement of paper PMC8617591

Experiments:
[1] = test system: Mycobacterium tuberculosis Erdman (autoluminescent); assay: total FIC90 (Loewe) at 90% inhibition, three-drug combination (log2); higher = more antagonistic
Method: (§1)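 DiaMOND equipotent three-drug combination dose responses (10 doses, 1.5- or 2-fold spacing, centred on IC90) against autoluminescent M. tuberculosis Erdman in 8 in vitro models. Read-out is OD600, or luminescence for the intracellular and dormancy models, normalised to untreated wells. Hill-fit Einf, AUC25 and GRinf are potency metrics; FIC50 and FIC90 are total Loewe fractional inhibitory concentrations as log2 (negative = synergy).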

[2] = test system: Mycobacterium tuberculosis Erdman (autoluminescent); assay: Einf, fitted maximum growth inhibition of three-drug combination (fraction); higher = stronger maximal inhibition
Method: as §1

[3] = test system: Mycobacterium tuberculosis Erdman (autoluminescent); assay: total FIC50 (Loewe) at 50% inhibition, three-drug combination (log2); higher = more antagonistic
Method: as §1

[4] = test system: Mycobacterium tuberculosis Erdman (autoluminescent); assay: GRinf, maximum normalised growth rate inhibition (three-drug combination) (unitless (-1 to 1)); higher = less effect (negative = killing)
Method: as §1

[5] = test system: Mycobacterium tuberculosis Erdman (autoluminescent); assay: AUC25, normalised area under dose response up to IC25 (three-drug combination) (fraction (0-1)); higher = more potent at low dose
Method: as §1

[6] = in vitro model: acidic pH 5.7, time point: terminal (~4-5 doublings, model-specific)
[7] = in vitro model: butyrate, time point: constant (~7 days, model-specific)
[8] = in vitro model: butyrate, time point: terminal (~4-5 doublings, model-specific)
[9] = in vitro model: cholesterol 0.05 mM, time point: terminal (~4-5 doublings, model-specific)
[10] = in vitro model: cholesterol-high 0.2 mM, time point: terminal (~4-5 doublings, model-specific)
[11] = in vitro model: dormancy (butyrate + nitrate, low O2), time point: constant (~7 days, model-specific)
[12] = in vitro model: dormancy (butyrate + nitrate, low O2), time point: terminal (~4-5 doublings, model-specific)
[13] = in vitro model: intracellular J774, time point: constant = terminal
[14] = in vitro model: standard 7H9 glycerol, time point: constant = terminal
[15] = in vitro model: valerate, time point: constant (~7 days, model-specific)
[16] = in vitro model: valerate, time point: terminal (~4-5 doublings, model-specific)
[17] = in vitro model: acidic pH 5.7, time point: constant (~7 days, model-specific)
[18] = in vitro model: cholesterol 0.05 mM, time point: constant (~7 days, model-specific)
[19] = in vitro model: cholesterol-high 0.2 mM, time point: constant (~7 days, model-specific)

## CC(C)/N=c1\cc2n(-c3ccc(Cl)cc3)c3ccccc3nc-2cc1Nc1ccc(Cl)cc1 [clofazimine] + NNC(=O)c1ccncc1 [isoniazid] + O=[N+]([O-])c1cn2c(n1)OC[C@@H](OCc1ccc(OC(F)(F)F)cc1)C2 [pretomanid]
[1]; [6]
  total FIC90: 0.567
[1]; [7]
  total FIC90: 1.4
[1]; [8]
  total FIC90: 1.02
[1]; [9]
  total FIC90: 0.912
[1]; [10]
  total FIC90: 0.374
[1]; [11]
  total FIC90: -0.894
[1]; [12]
  total FIC90: -0.0746
[1]; [13]
  total FIC90: 0.28
[1]; [14]
  total FIC90: 0.594
[1]; [15]
  total FIC90: 2.23
[1]; [16]
  total FIC90: 2.01
[2]; [17]
  Einf: 0.772
[2]; [6]
  Einf: 0.963
[2]; [7]
  Einf: 0.965
[2]; [8]
  Einf: 0.989
[2]; [18]
  Einf: 0.713
[2]; [9]
  Einf: 0.912
[2]; [19]
  Einf: 0.971
[2]; [10]
  Einf: 1
[2]; [11]
  Einf: 0.93
[2]; [12]
  Einf: 0.987
[2]; [13]
  Einf: 0.976
[2]; [14]
  Einf: 0.949
[2]; [15]
  Einf: 0.918
[2]; [16]
  Einf: 0.942
[3]; [17]
  total FIC50: -0.103
[3]; [6]
  total FIC50: 0.278
[3]; [7]
  total FIC50: 0.629
[3]; [8]
  total FIC50: 0.581
[3]; [18]
  total FIC50: 0.824
[3]; [9]
  total FIC50: 7.01
[3]; [19]
  total FIC50: 0.301
[3]; [10]
  total FIC50: 0.306
[3]; [11]
  total FIC50: -0.236
[3]; [12]
  total FIC50: -0.374
[3]; [14]
  total FIC50: 0.139
[3]; [15]
  total FIC50: 0.901
[3]; [16]
  total FIC50: 0.511
[4]; [17]
  GRinf: -0.0866
[4]; [6]
  GRinf: -0.274
[4]; [7]
  GRinf: -0.205
[4]; [8]
  GRinf: -0.14
[4]; [18]
  GRinf: -0.0879
[4]; [9]
  GRinf: -0.156
[4]; [19]
  GRinf: -0.31
[4]; [10]
  GRinf: -0.709
[4]; [11]
  GRinf: 0.217
[4]; [12]
  GRinf: -0.177
[4]; [13]
  GRinf: -0.35
[4]; [14]
  GRinf: -0.229
[4]; [15]
  GRinf: -0.199
[4]; [16]
  GRinf: -0.0153
[5]; [17]
  AUC25: 0.0904
[5]; [6]
  AUC25: 0.0916
[5]; [7]
  AUC25: 0.106
[5]; [8]
  AUC25: 0.0874
[5]; [18]
  AUC25: 0.119
[5]; [9]
  AUC25: 0.0944
[5]; [19]
  AUC25: 0.102
[5]; [10]
  AUC25: 0.0894
[5]; [11]
  AUC25: 0.0958
[5]; [12]
  AUC25: 0.0744
[5]; [14]
  AUC25: 0.116
[5]; [15]
  AUC25: 0.15
[5]; [16]
  AUC25: 0.0945

## CC(C)/N=c1\cc2n(-c3ccc(Cl)cc3)c3ccccc3nc-2cc1Nc1ccc(Cl)cc1 [clofazimine] + O=[N+]([O-])c1cn2c(n1)OC[C@@H](OCc1ccc(OC(F)(F)F)cc1)C2 [pretomanid] + CO[C@H]1/C=C/O[C@@]2(C)Oc3c(C)c(O)c4c(O)c(c(/C=N/N5CCN(C6CCCC6)CC5)c(O)c4c3C2=O)NC(=O)/C(C)=C\C=C\[C@H](C)[C@H](O)[C@@H](C)[C@@H](O)[C@@H](C)[C@H](OC(C)=O)[C@@H]1C [rifapentine]
[1]; [6]
  total FIC90: 0.423
[1]; [7]
  total FIC90: 0.896
[1]; [8]
  total FIC90: 0.795
[1]; [9]
  total FIC90: 1.38
[1]; [19]
  total FIC90: 2.04
[1]; [10]
  total FIC90: 1.76
[1]; [11]
  total FIC90: -1.71
[1]; [12]
  total FIC90: -0.279
[1]; [13]
  total FIC90: -0.198
[1]; [14]
  total FIC90: 1.7
[1]; [16]
  total FIC90: 1.7
[2]; [17]
  Einf: 0.899
[2]; [6]
  Einf: 0.993
[2]; [7]
  Einf: 0.944
[2]; [8]
  Einf: 0.978
[2]; [18]
  Einf: 0.719
[2]; [9]
  Einf: 0.913
[2]; [19]
  Einf: 0.93
[2]; [10]
  Einf: 1
[2]; [11]
  Einf: 0.948
[2]; [12]
  Einf: 0.997
[2]; [13]
  Einf: 0.989
[2]; [14]
  Einf: 0.954
[2]; [15]
  Einf: 0.893
[2]; [16]
  Einf: 0.953
[3]; [17]
  total FIC50: 0.105
[3]; [6]
  total FIC50: 0.264
[3]; [7]
  total FIC50: 0.542
[3]; [8]
  total FIC50: 0.502
[3]; [18]
  total FIC50: 1.34
[3]; [9]
  total FIC50: 1.34
[3]; [19]
  total FIC50: 1.29
[3]; [10]
  total FIC50: 1.49
[3]; [11]
  total FIC50: 0.0191
[3]; [12]
  total FIC50: -0.0775
[3]; [14]
  total FIC50: -0.289
[3]; [15]
  total FIC50: 1.22
[3]; [16]
  total FIC50: 0.552
[4]; [17]
  GRinf: -0.186
[4]; [6]
  GRinf: -0.236
[4]; [7]
  GRinf: -0.17
[4]; [8]
  GRinf: -0.146
[4]; [18]
  GRinf: -0.154
[4]; [9]
  GRinf: -0.114
[4]; [19]
  GRinf: -0.434
[4]; [10]
  GRinf: -0.886
[4]; [11]
  GRinf: -0.0911
[4]; [12]
  GRinf: -0.374
[4]; [13]
  GRinf: -0.655
[4]; [14]
  GRinf: -0.0887
[4]; [15]
  GRinf: -0.158
[4]; [16]
  GRinf: 0.0119
[5]; [17]
  AUC25: 0.103
[5]; [6]
  AUC25: 0.0882
[5]; [7]
  AUC25: 0.108
[5]; [8]
  AUC25: 0.0902
[5]; [18]
  AUC25: 0.125
[5]; [9]
  AUC25: 0.1
[5]; [19]
  AUC25: 0.101
[5]; [10]
  AUC25: 0.104
[5]; [11]
  AUC25: 0.0611
[5]; [12]
  AUC25: 0.0501
[5]; [14]
  AUC25: 0.12
[5]; [15]
  AUC25: 0.155
[5]; [16]
  AUC25: 0.106

## CC(C)/N=c1\cc2n(-c3ccc(Cl)cc3)c3ccccc3nc-2cc1Nc1ccc(Cl)cc1 [clofazimine] + O=[N+]([O-])c1cn2c(n1)OC[C@@H](OCc1ccc(OC(F)(F)F)cc1)C2 [pretomanid] + CO[C@H]1/C=C/O[C@@]2(C)Oc3c(C)c(O)c4c(O)c(c(/C=N/N5CCN(C)CC5)c(O)c4c3C2=O)NC(=O)/C(C)=C\C=C\[C@H](C)[C@H](O)[C@@H](C)[C@@H](O)[C@@H](C)[C@H](OC(C)=O)[C@@H]1C [rifampicin]
[1]; [6]
  total FIC90: 0.276
[1]; [7]
  total FIC90: 0.0534
[1]; [8]
  total FIC90: 0.399
[1]; [9]
  total FIC90: 0.826
[1]; [19]
  total FIC90: 1.16
[1]; [10]
  total FIC90: 1.36
[1]; [11]
  total FIC90: -1.51
[1]; [12]
  total FIC90: -0.477
[1]; [13]
  total FIC90: -0.529
[1]; [14]
  total FIC90: -0.0486
[1]; [16]
  total FIC90: 0.763
[2]; [17]
  Einf: 0.916
[2]; [6]
  Einf: 0.989
[2]; [7]
  Einf: 0.936
[2]; [8]
  Einf: 0.977
[2]; [18]
  Einf: 0.696
[2]; [9]
  Einf: 0.844
[2]; [19]
  Einf: 0.891
[2]; [10]
  Einf: 1
[2]; [11]
  Einf: 0.938
[2]; [12]
  Einf: 0.993
[2]; [13]
  Einf: 0.992
[2]; [14]
  Einf: 0.93
[2]; [15]
  Einf: 0.857
[2]; [16]
  Einf: 0.929
[3]; [17]
  total FIC50: 0.218
[3]; [6]
  total FIC50: 0.575
[3]; [7]
  total FIC50: 0.432
[3]; [8]
  total FIC50: 0.197
[3]; [18]
  total FIC50: 1.03
[3]; [9]
  total FIC50: 1.18
[3]; [19]
  total FIC50: 1.29
[3]; [10]
  total FIC50: 1.57
[3]; [11]
  total FIC50: -0.678
[3]; [12]
  total FIC50: -0.503
[3]; [14]
  total FIC50: -0.349
[3]; [15]
  total FIC50: 0.706
[3]; [16]
  total FIC50: 0.736
[4]; [17]
  GRinf: -0.179
[4]; [6]
  GRinf: -0.161
[4]; [7]
  GRinf: -0.134
[4]; [8]
  GRinf: -0.128
[4]; [18]
  GRinf: -0.174
[4]; [9]
  GRinf: 0.0526
[4]; [19]
  GRinf: -0.242
[4]; [10]
  GRinf: -0.716
[4]; [11]
  GRinf: 0.038
[4]; [12]
  GRinf: -0.337
[4]; [13]
  GRinf: -0.685
[4]; [14]
  GRinf: 0.0153
[4]; [15]
  GRinf: 0.0268
[4]; [16]
  GRinf: 0.0406
[5]; [17]
  AUC25: 0.113
[5]; [6]
  AUC25: 0.073
[5]; [7]
  AUC25: 0.104
[5]; [8]
  AUC25: 0.0947
[5]; [18]
  AUC25: 0.124
[5]; [9]
  AUC25: 0.0924
[5]; [19]
  AUC25: 0.0944
[5]; [10]
  AUC25: 0.0908
[5]; [11]
  AUC25: 0.0988
[5]; [12]
  AUC25: 0.0571
[5]; [14]
  AUC25: 0.11
[5]; [15]
  AUC25: 0.0751
[5]; [16]
  AUC25: 0.0551
